Earlier results on 2 molecules are cited in paper PMC11291603, “Histidine-based ionizable cationic surfactants: novel biodegradable agents for hydrophilic macromolecular drug delivery” (Drug Delivery and Translational Research, 2024).

Broadly, the Aqueous solubility is the dissolved amount per volume that the medium holds.

Molecules are shown by their SMILES.

The conditions of series [1]: literature value, no reference given.
For series [2] the following is noted: as specified by the manufacturer.

Turning to `N[C@@H](Cc1c[nH]cn1)C(=O)O` [histidine], in series [1], the “pKa of the imidazolium ring” value is 6.0-6.1.

On to `CCCCCCCCC(CO)CCCCCC` (centres unmarked) [2-hexyl-1-decanol], for which the Aqueous solubility in series [2] is 1 µg/mL.
